PubChem BioAssay (NCI)
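96-well plates; 48 h exposure; 5 concentrations. Endpoints by linear interpolation between flanking doses. Not reached: highest tested concentration assigned. At the TGI there is no net growth.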

Columns and labels:
Assay in all cases: growth of human tumour cells (NCI), 48 h
MDA-MB-231 breast = tested on: MDA-MB-231 breast
CAKI-1 renal = tested on: CAKI-1 renal
MALME-3M melanoma = tested on: MALME-3M melanoma
T-47D breast = tested on: T-47D breast
COLO 205 colon = tested on: COLO 205 colon
SK-OV-3 ovarian = tested on: SK-OV-3 ovarian
HCT-15 colon = tested on: HCT-15 colon
U251 CNS = tested on: U251 CNS
NCI-H226 lung = tested on: NCI-H226 lung
KM12 colon = tested on: KM12 colon
HL-60(TB) leukemia = tested on: HL-60(TB) leukemia
BT-549 breast = tested on: BT-549 breast
IGROV1 ovarian = tested on: IGROV1 ovarian
UACC-62 melanoma = tested on: UACC-62 melanoma
SN12C renal = tested on: SN12C renal
NCI-H23 lung = tested on: NCI-H23 lung
DU-145 prostate = tested on: DU-145 prostate
K-562 leukemia = tested on: K-562 leukemia
SNB-19 CNS = tested on: SNB-19 CNS
SK-MEL-28 melanoma = tested on: SK-MEL-28 melanoma
SK-MEL-2 melanoma = tested on: SK-MEL-2 melanoma
SK-MEL-5 melanoma = tested on: SK-MEL-5 melanoma
UACC-257 melanoma = tested on: UACC-257 melanoma
SF-539 CNS = tested on: SF-539 CNS
A549 NSCLC = tested on: A549 NSCLC
HT29 colon = tested on: HT29 colon
MDA-MB-435 = tested on: MDA-MB-435
SNB-75 CNS = tested on: SNB-75 CNS
SR leukemia = tested on: SR leukemia
HCT-116 colon = tested on: HCT-116 colon
OVCAR-5 ovarian = tested on: OVCAR-5 ovarian
SW-620 colon = tested on: SW-620 colon
M14 melanoma = tested on: M14 melanoma
UO-31 renal = tested on: UO-31 renal
OVCAR-3 ovarian = tested on: OVCAR-3 ovarian
OVCAR-8 ovarian = tested on: OVCAR-8 ovarian
HCC-2998 colon = tested on: HCC-2998 colon
MOLT-4 leukemia = tested on: MOLT-4 leukemia
HOP-62 NSCLC = tested on: HOP-62 NSCLC
HOP-92 NSCLC = tested on: HOP-92 NSCLC
LOX IMVI melanoma = tested on: LOX IMVI melanoma
A498 renal = tested on: A498 renal
SF-268 CNS = tested on: SF-268 CNS
PC-3 prostate = tested on: PC-3 prostate
NCI-H522 lung = tested on: NCI-H522 lung
RXF 393 renal = tested on: RXF 393 renal
EKVX NSCLC = tested on: EKVX NSCLC
OVCAR-4 ovarian = tested on: OVCAR-4 ovarian
MCF7 breast = tested on: MCF7 breast
ACHN renal = tested on: ACHN renal
SF-295 CNS = tested on: SF-295 CNS
TK-10 renal = tested on: TK-10 renal
MDA-N = tested on: MDA-N
NCI/ADR-RES ovarian = tested on: NCI/ADR-RES ovarian
786-0 renal = tested on: 786-0 renal
NCI-H460 lung = tested on: NCI-H460 lung
CCRF-CEM leukemia = tested on: CCRF-CEM leukemia
RPMI-8226 leukemia = tested on: RPMI-8226 leukemia

`CN1CCN(CCCCN2c3ccccc3Sc3ccc(C(=O)c4ccccc4)cc32)CC1` was tested, and the TGI (MDA-MB-231 breast) was 3.38 µM, the TGI (CAKI-1 renal) was 2.75 µM and the TGI (MALME-3M melanoma) was 7.3 µM. The TGI (T-47D breast) was 45.4 µM, the TGI (COLO 205 colon) was 3.28 µM and the TGI (SK-OV-3 ovarian) was 2.94 µM. The TGI (HCT-15 colon) was 3.06 µM, the TGI (U251 CNS) was 3.09 µM and the TGI (NCI-H226 lung) was 3.7 µM. For the same compound, the TGI (KM12 colon) was 2.49 µM, the TGI (HL-60(TB) leukemia) was 3.66 µM and the TGI (BT-549 breast) was 3.04 µM. It also gave a TGI (IGROV1 ovarian) of 3.19 µM, a TGI (UACC-62 melanoma) of 2.52 µM and a TGI (SN12C renal) of 3.19 µM. The TGI (NCI-H23 lung) was 3.71 µM, the TGI (DU-145 prostate) was 6.73 µM and the TGI (K-562 leukemia) was 2.79 µM. For the same compound, the TGI (SNB-19 CNS) was 3.45 µM, the TGI (SK-MEL-28 melanoma) was 2.85 µM and the TGI (SK-MEL-2 melanoma) was 3.41 µM. The TGI (SK-MEL-5 melanoma) was 3.08 µM, the TGI (UACC-257 melanoma) was 3.36 µM and the TGI (SF-539 CNS) was 3.41 µM. For the same compound, the TGI (A549 NSCLC) was 3.55 µM, the TGI (HT29 colon) was 2.6 µM and the TGI (MDA-MB-435) was 3.24 µM. For the same compound, the TGI (SNB-75 CNS) was 2.58 µM, the TGI (SR leukemia) was 4.61 µM and the TGI (HCT-116 colon) was 3.29 µM. The TGI (OVCAR-5 ovarian) was 7.43 µM, the TGI (SW-620 colon) was 3.2 µM and the TGI (M14 melanoma) was 3.32 µM. For the same compound, the TGI (UO-31 renal) was 6.27 µM, the TGI (OVCAR-3 ovarian) was 3.71 µM and the TGI (OVCAR-8 ovarian) was 2.97 µM. For the same compound, the TGI (HCC-2998 colon) was 2.94 µM, the TGI (MOLT-4 leukemia) was 3.43 µM and the TGI (HOP-62 NSCLC) was 3.16 µM. The TGI (HOP-92 NSCLC) was 4.68 µM, the TGI (LOX IMVI melanoma) was 3.22 µM and the TGI (A498 renal) was 3.12 µM. For the same compound, the TGI (SF-268 CNS) was 13 µM, the TGI (PC-3 prostate) was 2.83 µM and the TGI (NCI-H522 lung) was 3.44 µM. It also gave a TGI (RXF 393 renal) of 2.57 µM, a TGI (EKVX NSCLC) of 15.5 µM and a TGI (OVCAR-4 ovarian) of 6.13 µM. The TGI (MCF7 breast) was 3.65 µM, the TGI (ACHN renal) was 3.06 µM and the TGI (SF-295 CNS) was 3.45 µM. The TGI (TK-10 renal) was 3.11 µM and the TGI (MDA-N) was 2.92 µM.

In the case of `COc1ccc(Cc2nc3cc([N+](=O)[O-])ccc3n2C[C@@H]2CCCN3CCCCC23)cc1` (some centres not stated), the TGI (NCI/ADR-RES ovarian) was 60.6 µM, the TGI (MDA-MB-231 breast) was 43 µM and the TGI (CAKI-1 renal) was 45.3 µM. For the same compound, the TGI (MALME-3M melanoma) was 32.1 µM, the TGI (T-47D breast) was greater than 100 µM and the TGI (COLO 205 colon) was 27 µM. It also gave a TGI (SK-OV-3 ovarian) of 46.4 µM, a TGI (HCT-15 colon) of 56.5 µM and a TGI (U251 CNS) of 50.6 µM. It also gave a TGI (NCI-H226 lung) greater than 100 µM, a TGI (KM12 colon) of 29.8 µM and a TGI (HL-60(TB) leukemia) of 19 µM. The TGI (BT-549 breast) was 37.5 µM, the TGI (IGROV1 ovarian) was 48.1 µM and the TGI (786-0 renal) was 40 µM. The TGI (UACC-62 melanoma) was 31.3 µM, the TGI (NCI-H23 lung) was 87.2 µM and the TGI (DU-145 prostate) was greater than 100 µM. It also gave a TGI (NCI-H460 lung) greater than 100 µM, a TGI (K-562 leukemia) of 57.6 µM and a TGI (SNB-19 CNS) of 84.8 µM. For the same compound, the TGI (SK-MEL-28 melanoma) was 35.1 µM, the TGI (SK-MEL-2 melanoma) was 33.2 µM and the TGI (SK-MEL-5 melanoma) was 27.9 µM. It also gave a TGI (UACC-257 melanoma) of 31.5 µM, a TGI (A549 NSCLC) of 35 µM and a TGI (HT29 colon) of 38.4 µM. The TGI (MDA-MB-435) was 38.1 µM, the TGI (SNB-75 CNS) was greater than 100 µM and the TGI (HCT-116 colon) was 38.2 µM. The TGI (OVCAR-5 ovarian) was 82 µM, the TGI (SW-620 colon) was 81.8 µM and the TGI (M14 melanoma) was 27.2 µM. It also gave a TGI (UO-31 renal) of 21.1 µM, a TGI (OVCAR-3 ovarian) of 41.1 µM and a TGI (OVCAR-8 ovarian) greater than 100 µM. For the same compound, the TGI (HCC-2998 colon) was 34.1 µM, the TGI (MOLT-4 leukemia) was 60.1 µM and the TGI (HOP-62 NSCLC) was 43.6 µM. For the same compound, the TGI (HOP-92 NSCLC) was 76.8 µM, the TGI (LOX IMVI melanoma) was 36.4 µM and the TGI (A498 renal) was 35.2 µM. For the same compound, the TGI (PC-3 prostate) was greater than 100 µM, the TGI (RXF 393 renal) was 39.8 µM and the TGI (EKVX NSCLC) was 76.5 µM. The TGI (CCRF-CEM leukemia) was 29.2 µM, the TGI (OVCAR-4 ovarian) was 61.3 µM and the TGI (MCF7 breast) was greater than 100 µM. For the same compound, the TGI (ACHN renal) was greater than 100 µM, the TGI (SF-295 CNS) was 35.8 µM and the TGI (TK-10 renal) was 92.8 µM. The TGI (MDA-N) was 33.8 µM.

For `CO/C(N)=C(\C#N)N=Cc1cccnc1`, the TGI (NCI/ADR-RES ovarian) was greater than 100 µM, the TGI (MDA-MB-231 breast) was greater than 100 µM and the TGI (CAKI-1 renal) was greater than 100 µM. It also gave a TGI (MALME-3M melanoma) greater than 100 µM, a TGI (T-47D breast) greater than 100 µM and a TGI (COLO 205 colon) greater than 100 µM. It also gave a TGI (SK-OV-3 ovarian) greater than 100 µM, a TGI (HCT-15 colon) greater than 100 µM and a TGI (U251 CNS) greater than 100 µM. The TGI (RPMI-8226 leukemia) was greater than 100 µM, the TGI (NCI-H226 lung) was greater than 100 µM and the TGI (KM12 colon) was greater than 100 µM. For the same compound, the TGI (HL-60(TB) leukemia) was greater than 100 µM, the TGI (BT-549 breast) was greater than 100 µM and the TGI (IGROV1 ovarian) was greater than 100 µM. The TGI (786-0 renal) was greater than 100 µM, the TGI (UACC-62 melanoma) was greater than 100 µM and the TGI (SN12C renal) was greater than 100 µM. For the same compound, the TGI (NCI-H23 lung) was greater than 100 µM, the TGI (DU-145 prostate) was greater than 100 µM and the TGI (K-562 leukemia) was greater than 100 µM. For the same compound, the TGI (SK-MEL-28 melanoma) was greater than 100 µM, the TGI (SK-MEL-2 melanoma) was greater than 100 µM and the TGI (SK-MEL-5 melanoma) was greater than 100 µM. For the same compound, the TGI (UACC-257 melanoma) was greater than 100 µM, the TGI (SF-539 CNS) was greater than 100 µM and the TGI (A549 NSCLC) was greater than 100 µM. It also gave a TGI (HT29 colon) greater than 100 µM, a TGI (MDA-MB-435) greater than 100 µM and a TGI (SNB-75 CNS) greater than 100 µM. The TGI (HCT-116 colon) was greater than 100 µM, the TGI (OVCAR-5 ovarian) was greater than 100 µM and the TGI (SW-620 colon) was greater than 100 µM. It also gave a TGI (M14 melanoma) greater than 100 µM, a TGI (OVCAR-3 ovarian) greater than 100 µM and a TGI (OVCAR-8 ovarian) greater than 100 µM. It also gave a TGI (HCC-2998 colon) greater than 100 µM, a TGI (MOLT-4 leukemia) greater than 100 µM and a TGI (HOP-62 NSCLC) greater than 100 µM. It also gave a TGI (HOP-92 NSCLC) greater than 100 µM, a TGI (LOX IMVI melanoma) greater than 100 µM and a TGI (A498 renal) greater than 100 µM. The TGI (SF-268 CNS) was greater than 100 µM, the TGI (PC-3 prostate) was greater than 100 µM and the TGI (RXF 393 renal) was greater than 100 µM. It also gave a TGI (EKVX NSCLC) greater than 100 µM, a TGI (CCRF-CEM leukemia) greater than 100 µM and a TGI (OVCAR-4 ovarian) greater than 100 µM. For the same compound, the TGI (MCF7 breast) was greater than 100 µM, the TGI (SF-295 CNS) was greater than 100 µM and the TGI (TK-10 renal) was greater than 100 µM. The TGI (MDA-N) was greater than 100 µM.
